“And” between values parts separate entries of the source, which are not always exact repeats. Equal values may be shown once.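 Cells were grown in 96-well plates and exposed to each compound for 48 hours at five concentrations; endpoints were interpolated linearly between bracketing concentrations, or set to the highest concentration if not reached. GI50 = concentration required for 50% inhibition of growth. TGI denotes the concentration required for complete inhibition of growth.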 Where only a bound is given, the exact number is not on record here.

For one test, the system named is CAKI-1 renal. The experiment in a line: growth of human tumour cells (NCI), 48 h.
For the molecule `CCOc1ccc(Nc2c3ccccc3nc3ccccc23)cc1`, the GI50 was 0.359 µM and 0.376 µM; the TGI is 3.32 µM and 1.75 µM.
Turning to `CCCCCCCCCCCCCC[n+]1cccc(C(N)=O)c1`, the GI50 is 0.964 µM and the TGI is 6.52 µM.
In the same order, the values of `COc1cc2nc(-c3ccc(C(F)(F)F)cc3)cc(OCCCN3CCCC3)c2cc1OC` are 0.245 µM and 14 µM.
In the same order, the values of `C/C1=C\CC[C@@](C)(O)[C@@H]2C[C@H](CC/C(C)=C/CC1)C1(CC1)C(=O)O2` are 22.2 µM and 50.2 µM.
Take `COc1ccc(C(=O)c2nc3ccccc3n2CC(=O)c2ccc(Cl)cc2)cc1`: the GI50 is 53.6 µM and the TGI was over 100 µM.
In the same order, the values of `O=C(NCCN1CCNCC1)c1ccc(Nc2nc3ccccc3c3occc23)cc1` are 15.6 µM and 32.3 µM.
Regarding `COc1cc(C2c3cc4c(cc3[C@@H](Nc3ccc5c(c3)OCCO5)C3COC(=O)[C@H]23)OCO4)cc(OC)c1O` (stereo not given in full), the TGI amounted to 2.42 µM.
With `OCc1ccc(N2CCOCC2)cc1Cl`, the GI50 is over 100 µM and the TGI was over 100 µM.

In another test the test system is CCRF-CEM leukemia. Nature of the test: growth of human tumour cells (NCI), 48 h.
On to `CCOc1ccc(Nc2c3ccccc3nc3ccccc23)cc1`, for which the GI50 was 0.585 µM and 0.739 µM; the TGI was > 31.7 µM and 3.26 µM.
Take `CCCCCCCCCCCCCC[n+]1cccc(C(N)=O)c1`: the GI50 was 1.5 µM and the TGI was determined as 4.47 µM.
The matching figures for `COc1cc2nc(-c3ccc(C(F)(F)F)cc3)cc(OCCCN3CCCC3)c2cc1OC`: 1.08 µM and 9.92 µM.
The matching figures for `C/C1=C\CC[C@@](C)(O)[C@@H]2C[C@H](CC/C(C)=C/CC1)C1(CC1)C(=O)O2`: 76.1 µM and over 100 µM.
The matching figures for `COc1ccc(C(=O)c2nc3ccccc3n2CC(=O)c2ccc(Cl)cc2)cc1`: 2.24 µM and over 26.4 µM.
With `O=C(NCCN1CCNCC1)c1ccc(Nc2nc3ccccc3c3occc23)cc1`, the GI50 is 10.3 µM and the TGI was determined as 28.5 µM.
Take `COc1cc(C2c3cc4c(cc3[C@@H](Nc3ccc5c(c3)OCCO5)C3COC(=O)[C@H]23)OCO4)cc(OC)c1O` (stereo not given in full): the TGI came to 2.28 µM.
Turning to `OCc1ccc(N2CCOCC2)cc1Cl`, the GI50 was over 100 µM and the TGI was over 100 µM.

A further test deals with HT29 colon. Nature of the test: growth of human tumour cells (NCI), 48 h.
As to `CCOc1ccc(Nc2c3ccccc3nc3ccccc23)cc1`, the GI50 was 0.307 µM and 0.264 µM; the TGI was 1.26 µM and 1.08 µM.
Consider `CCCCCCCCCCCCCC[n+]1cccc(C(N)=O)c1`, for which the GI50 was 0.778 µM and the TGI is 4.63 µM.
Turning to `COc1cc2nc(-c3ccc(C(F)(F)F)cc3)cc(OCCCN3CCCC3)c2cc1OC`, the GI50 is 0.429 µM and the TGI came to 5.85 µM.
As to `C/C1=C\CC[C@@](C)(O)[C@@H]2C[C@H](CC/C(C)=C/CC1)C1(CC1)C(=O)O2`, the GI50 was 31.4 µM and the TGI is over 100 µM.
In the same order, the values of `COc1ccc(C(=O)c2nc3ccccc3n2CC(=O)c2ccc(Cl)cc2)cc1` are 2.82 µM and over 100 µM.
Consider `O=C(NCCN1CCNCC1)c1ccc(Nc2nc3ccccc3c3occc23)cc1`, for which the GI50 was 4.5 µM and the TGI was over 100 µM.
The molecule `COc1cc(C2c3cc4c(cc3[C@@H](Nc3ccc5c(c3)OCCO5)C3COC(=O)[C@H]23)OCO4)cc(OC)c1O` (stereo not given in full) yielded a TGI of 5.96 µM.
Regarding `OCc1ccc(N2CCOCC2)cc1Cl`, the GI50 was over 81.8 µM and the TGI is over 100 µM.

The test system of the next test is MCF7 breast. Nature of the test: growth of human tumour cells (NCI), 48 h.
With `CCOc1ccc(Nc2c3ccccc3nc3ccccc23)cc1`, the GI50 was 0.318 µM and 0.297 µM; the TGI was 4.2 µM and 4.23 µM.
Regarding `CCCCCCCCCCCCCC[n+]1cccc(C(N)=O)c1`, the GI50 is 2.62 µM and the TGI worked out at 11.4 µM.
In the same order, the values of `COc1cc2nc(-c3ccc(C(F)(F)F)cc3)cc(OCCCN3CCCC3)c2cc1OC` are 1.12 µM and 4.13 µM.
Regarding `C/C1=C\CC[C@@](C)(O)[C@@H]2C[C@H](CC/C(C)=C/CC1)C1(CC1)C(=O)O2`, the GI50 is 66.9 µM and the TGI was over 100 µM.
In the same order, the values of `COc1ccc(C(=O)c2nc3ccccc3n2CC(=O)c2ccc(Cl)cc2)cc1` are 2.1 µM and over 100 µM.
The matching figures for `O=C(NCCN1CCNCC1)c1ccc(Nc2nc3ccccc3c3occc23)cc1`: 30.2 µM and over 100 µM.
The molecule `COc1cc(C2c3cc4c(cc3[C@@H](Nc3ccc5c(c3)OCCO5)C3COC(=O)[C@H]23)OCO4)cc(OC)c1O` (stereo not given in full) gave a TGI of over 100 µM.
Take `OCc1ccc(N2CCOCC2)cc1Cl`: the GI50 was 15.8 µM and the TGI is over 100 µM.

In the next test the test system is MOLT-4 leukemia. Nature of the test: growth of human tumour cells (NCI), 48 h.
As to `CCOc1ccc(Nc2c3ccccc3nc3ccccc23)cc1`, the GI50 is 0.476 µM and 0.258 µM; the TGI was 5.59 µM and 1.27 µM.
On to `CCCCCCCCCCCCCC[n+]1cccc(C(N)=O)c1`, for which the GI50 was 1.67 µM and the TGI came to 4.26 µM.
In the same order, the values of `COc1cc2nc(-c3ccc(C(F)(F)F)cc3)cc(OCCCN3CCCC3)c2cc1OC` are 1.42 µM and 5.09 µM.
Take `C/C1=C\CC[C@@](C)(O)[C@@H]2C[C@H](CC/C(C)=C/CC1)C1(CC1)C(=O)O2`: the GI50 is 15.5 µM and the TGI is 38.2 µM.
The matching figures for `COc1ccc(C(=O)c2nc3ccccc3n2CC(=O)c2ccc(Cl)cc2)cc1`: 2.09 µM and over 100 µM.
With `O=C(NCCN1CCNCC1)c1ccc(Nc2nc3ccccc3c3occc23)cc1`, the GI50 was 20.4 µM and the TGI turned out to be 36.9 µM.
For `COc1cc(C2c3cc4c(cc3[C@@H](Nc3ccc5c(c3)OCCO5)C3COC(=O)[C@H]23)OCO4)cc(OC)c1O` (stereo not given in full), the TGI is 1.02 µM.
For the molecule `OCc1ccc(N2CCOCC2)cc1Cl`, the GI50 is over 100 µM and the TGI is over 100 µM.

For the origin of these results see PubChem BioAssay (NCI).
